Here are results for two compounds from patent US11203015B2, “Microfluidic device” (TECHNISCHE UNIVERSITAT WIEN, priority 2016, dated 2021).

The test system of this assay is human umbilical vain endothelial cells (HUVECs). In words: microfluidic wound healing assay (membrane deflection, cell depletion). It is filed as cell-based. How it is done:
Lentivirally transduced GFP HUVEC (human umbilical vain endothelial cells) were obtained from Olaf pharmaceuticals (USA) and cultivated in gelatin coated 25 cm^2 cell culture flasks and maintained in EGM-2 (Lonza, CC3156) supplemented with EGM-2 SingleQuots (Lonza, CC4176). The coating was performed using 1% gelatin solution (9000-70-8, Sigma Aldrich) in DPBS and was incubated for 30 min at 37° C. For on chip experiments the medium was supplemented with 1% hepes buffer (J848, AMRESCO). For the coating experiment 500 mM NaOH was inserted to the microfluidic channels, incubated for 15 min at RT, following rinsing with PBS and a protein mixture comprising 10 μg/m fibronectin (Sigma Aldrich, F4759) and […] fibrinogen conjugated with Alexa Fluor 488 (Thermo Fisher, F13191) was incubated for 1 h at 37° C.
The microfluidic device of example 1 was placed on a heating plate equipped with a temperature controller. The temperature of the plate was adjusted to reach 37° C. on top of the microdevice. For the on-chip wound healing assays the microchip was first sterilized using 70% ethanol, rinsed using a 1 M NaOH solution for 15 min and washed with PBS prior coating using a 1% gelatin solution for 1 h. Cell suspension of desired concentration was prepared and inserted into microchannels using plastic syringe (1 ml). Cells were allowed to adhere for 1 h in the absence of fluid flow followed by a constant medium perfusion of 4 μl/min using syringe pump. As soon as the cells were grown confluent (typically 1 to 2 days) cells were mechanically damaged (“squeezed”) by the PDMS membrane, which bended under force towards the cell layer. Bending was induced by manual increase of pressure load to 150 kPa (differential pressure) followed by immediate release to 0 kPa using a pressure controller. To further remove residual cell debris from the substrate multiple membrane deflections (minimum of three times) were performed. During the mechanical damaging the medium perfusion was always kept on.
The fluorescence pictures were transformed to grey scale, the contrast increased and the leading edge of the wound selected using the Magic wand tool. This image was then processed using Image) by determining the cell-free area with the tool Analyze Particles.
Next the ability to create defined and reproducible cell depletion zones within a confluent cell monolayer was evaluated using the membrane deflection method. In a series of experiments endothelial cells were seeded and cultivated in a microfluidic channel for a minimum period of 6 hours prior cell removal. During the entire wound healing assay including the cell depletion procedure the applied flow rate of 3 μl/min was kept constant to ensure complete removal of cell debris following membrane compression. In addition to maintaining an intact coating, a further aspect that may also influence cell migration is associated with the release of biochemical factors from viable but injured cells at the edge of the wounding area. To investigate whether cells located in the adjacent vicinity of the cell-free area are injured by membrane compression, dead staining using ethidium homodimer-1 was conducted in subsequent experiments. Results indicated the presence of red fluorescently labelled DNA debris present in the cell-free area following 1 h after wound induction. More importantly, none of the leading edge cells appeared damaged by the membrane compression, since only DNA from lysed cells inside the wound remained on the substrate. […]

The mark [1] stands for this setting: 10 μg/ml Mitomycin-C, one hour exposure, flow rate 3 μl/min, after 6 h.

Consider `CO[C@@]12[C@H](COC(N)=O)C3=C(C(=O)C(C)=C(N)C3=O)N1C[C@@H]1N[C@@H]12` [Mitomycin-C], for which the “wound closure observed after” value (10 μg/ml Mitomycin-C, one hour exposure) is on record as 24 h. In addition, under setting [1], the “cell-free area, times larger compared to TNF-α treated cells” value came out at 1.5 and the “cell-free area, times larger compared to control experiments” value is 5. For the same compound, the “cell density within the wounded area” value (10 μg/ml Mitomycin-C, after 24 h, compared to control) is recorded as “visibly reduced”.
For TNF-α, the “remaining cell-free area, factor larger than control experiments” value (1 ng/ml TNF-α in medium immediately after wound induction and maintained, 6 h post wounding) amounted to 3.3.
